Measurements reported in patent publication US8952025B2, “Multifunctional radical quenchers and their uses” (Arizona Board of Regents, A Body Corporate of the State of …, priority 2010, dated 2015).
Entries after “also recorded” stand apart in the source; their conditions may differ.

Key:
[1] = C11-BODIPY581/591 oxidation lipid peroxidation assay in liposomes; settings: 10 mM AAPH, phospholipid liposomes, phosphate buffer, 40° C.
Method: To overcome the problem of spectral overlap using cis-parinaric acid, a fluorescence assay for lipid peroxidation using a lipophilic probe belonging to the BODIPY class of fluorescent dyes was used. C11-BODIPY^581/591 (4,4-difluoro-5(4-phenyl-1,3-butadienyl)-4-bora-3a,4a-diaza-s-indacene-3-propionic acid) fluorescence shifts from red to green upon oxidation. C11-BODIPY^581/591 (Molecular Probes, Eugene, Oreg., USA) stock solution concentrations were determined by measuring the absorption of C11-BODIPY^581/591 at 582 nm using a molar extinction coefficient of 140,000 mol^−1 cm^−1(R. P. Haugland, (1999) Handbook of Fluorescent Probes and Research Chemicals, Molecular Probes, Inc., Eugene, Oreg.). The lipid peroxidation inducer 2,2′-Azobis (2-amidino-propane dihydrochloride) (AAPH) and the antioxidant compound α-tocopherol were obtained from Sigma (St. Louis, Mo., USA). Phospholipid bilayers were prepared from 1-stearoyl-2-oleoyl-phosphatidylcholine (SOPC) and 1,2-dilinoleoyl-phosphatidylcholine (DLPC) and were purchased from Avanti® polar lipids, INC (Alabaster, Ala., USA).
Phosphotidylcholine (PC) liposomes were prepared as described before (Guey-Shuang et al. (1982) Lipids. 17, 403-413). Briefly, DLPC (25 mg) and SOPC (25 mg) were dissolved in chloroform and the solvent was removed by nitrogen evaporation (˜2 hours to give a thin film of PC in a round bottom flask. The lipid film was hydrated with 50 mL of 10 mM Tris-HCl (pH 7.4), 100 mM KCl, shaken and sonicated for 15 seconds. The liposomes obtained were filtered several times through 0.2 μM membrane filter.
C11 BODIPY^581/591 was incorporated into liposomes and oxidized by peroxyl radicals derived from the decomposition of AAPH in presence and absence of the compounds. […] Liposomes were pre-incubated for 10 min with 200 nM C11 BODIPY^581/591 to allow their incorporation into the lipid phase of the liposomes. After the addition of AAPH (10 mM) the decay of red fluorescence was followed at λ exc=570 nm, λ em=600 nm. Relative fluorescence units were normalized to 100% intensity. Results obtained were verified by repeating experiments N=3 independent experiments.

[2] = tested on: CEM cells; assay: Reactive oxygen species (ROS) assay, DCFH-DA, DEM-treated cells; type: cell-based, human; settings: for protection against ROS production (DCF fluorescence): 5 mM DEM
Description: Cellular ROS production can be monitored using 2′,7′-dichlorodihydrofluorescein diacetate (DCFH-DA) (LeBel et al. (1992) Chem. Res. Toxicol. 5, 227-231) (Molecular Probes, Eugene, Oreg., USA), a membrane permeable and oxidant-sensitive fluorescent dye. DCFH-DA is a non-fluorescent derivative of fluorescein that emits fluorescence after being oxidized by hydrogen peroxide and other ROS. The emitted fluorescence is directly proportional to the concentration of hydrogen peroxide. DCFH-DA is nonionic and nonpolar and is easily taken up by cells. Once inside the cell, DCFH-DA is hydrolyzed by cellular esterases to non-fluorescent DCFH which traps the dye in the cell. In the presence of ROS including hydrogen peroxide, DCFH is oxidized to the highly fluorescent compound dichlorofluorescein (DCF). The intracellular DCF fluorescence is used as an index of cellular ROS production.
Cellular oxidative stress was induced by pharmacological depletion of glutathione (GSH) using the chemical diethylmaleate (DEM). ROS production was assessed by monitoring DCF fluorescence. Leukemic CEM cells (ATCC®, catalogue number CRL-2264) were cultured in RPMI (GIBCO, Grand island, N.Y., USA) with 10% FCS, 2 mM glutamine (HyClone, South Logan, Utah, USA) and 1% penicillin-streptomycin mix antibiotics (Cellgro, Manassan, Va., USA) supplements. Cells were maintained in the log phase at a concentration of between 1×10^5 and 1×10^6 cells/mL. CEM cells (1×10^6 cell/mL) were plated (1 mL) in twelve well plate and treated with the invention compounds (final concentration 1 and 5 μM), and incubated for two hours at 37° C., 5% CO2. The compounds tested were prepared by first making stock solutions (2.5 mM) in dimethylsulfoxide (DMSO). Cells were treated with 5 mM DEM for 30 minutes and collected by centrifugation at 300×g for 3 min and then washed twice with Hanks' Balanced Salt Solution (HSSB) buffer (Sigma, St. Louis, Mo. USA). Cells were resuspended in HSSB buffer+10 mM glucose and incubated at 37° C. in the dark for 20 min with 10 μM DCFH-DA. Cells were collected by centrifugation at 300×g for 3 min and then washed twice with HSSB buffer. The samples were analyzed immediately by flow cytometry (Becton-Dickinson FACS Caliber), (Cell Quest software, BD Biosciences) using 488 nm excitation laser and FL1-H channel 538 nm emission filter. In each analysis, 10,000 events were recorded after cell debris were electronically gated out. Results obtained were verified by repeating experiments N=3 independent experiments. Authentic hydrogen peroxide was used as a positive control.

[3] = tested on: CEM cells; assay: Trypan blue cell viability assay, DEM-treated cells; type: cell-based, human
Method: Cell viability determined by trypan blue exclusion assay: This technique was used to assess the cytoprotective effects of the invention compounds in cultured cells pharmacologically treated to induce cell death by GSH depletion. DEM was used to deplete cellular GSH and induce oxidative stress. The viability of DEM-treated CEM cells was determined by their ability to exclude the dye trypan blue. Viable cells exclude trypan blue; whereas, non-viable cells take up the dye and stain blue. Briefly, CEM cells were grown in RPMI 1640 medium (GIBCO, Grand island, N.Y., USA) supplemented with 10% fetal calf serum, 2 mM glutamine (HyClone, South Logan, Utah, USA), 1% penicillin-streptomycin mix (Cellgro, Manassan, Va., USA). Cells were seeded at a density of 1×10^6 cells/mL and treated with different concentrations of the invention compounds. Cells were incubated at 37° C. in a humidified atmosphere of 5% CO2 in air for three hours with 5 mM DEM. Cell viability was determined by staining cells with 0.4% trypan blue using a hemacytometer. At least 500 cells were counted for each experimental group. At the time of assay, >95% of DEM-treated cells were trypan blue positive; whereas, in non-DEM treated control cell cultures >95% cells were viable. Cell viability was expressed as the percentage of control. Data are expressed as means±S.E.M (n=3).

[4] = tested on: cytochrome c; assay: Cytochrome c reduction assay; type: biochemical; settings: 100 μM compound, 10 μM cytochrome c, absorbance 550 nm
Method: The rate of cytochrome c (10 μM) reduction was measured by monitoring the change in absorbance at 550 nm. Briefly the reaction was initiated by addition of 100 μM of the invention compounds to a mixture containing 50 mM phosphate buffer, 0.1 mM EDTA, pH 7.8, and 10 μM cytochrome c (Sigma, St. Louis, Mo. USA). For cytochrome c reduction by superoxide, xanthine oxidase (0.01 IU/mL) (Sigma, St. Louis, Mo. USA) was used in presence of xanthine (50 μM).

[5] = tested on: CEM leukemia cells; assay: Mitochondrial membrane potential (Δψm) assay, TMRM, FACS; type: cell-based, human; settings: pretreatment 0.5, 1 or 2.5 μM overnight, DEM
Method: Measurement of Mitochondrial Membrane Potential (Δψm)(FACS). For the determination of Δψm, CEM leukemia cells were pre-treated with or without the test compounds. The cells were treated with 5 mM DEM for 120 minutes, collected by centrifugation at 300×g for 3 minutes and then washed twice with phosphate buffered saline. The cells were re-suspended in HSSB buffer and incubated at 37° C. in the dark for 15 minutes with 250 nM TMRM (a cationic dye which accumulates within mitochondria in accordance with the Δψm Nernst potential). Cells were collected by centrifugation at 300×g for 3 minutes and then washed twice with phosphate buffered saline. The samples were analyzed immediately by flow cytometry using 488 nm excitation laser and the FL2-H channel. The results obtained were verified in three independent experiments. The protonophore FCCP (30 μM) was used to dissipate the chemiosmotic proton gradient (ΔμH^+) and served as a control for loss of Δψm. In each analysis, 10,000 events were recorded.

[6] = James et al. (2005); cited from earlier work

SMILES | quenching of lipid peroxidation (retention of C11-BODIPY581/591 fluorescence) [1] | protection against ROS production (DCF fluorescence) ([2]; compound 1 μM) | protection against ROS production (DCF fluorescence) ([2]; compound 5 μM) | suppression of ROS production (DCF fluorescence) ([2]; pretreatment 0.5, 1 or 5 μM, DEM) | EC50 ([3]; Homo sapiens, CCRF-CEM, CEM cells, pre-treatment 2 h, diethylmaleate 3 h, trypan blue exclusion, read-out: EC50 (effective concentration that prevents 50% of cell death)) [nM] | maintaining cell viability (trypan blue exclusion) ([3]; overnight incubation, then 5 mM DEM, 3 h) | reduction of cytochrome c [4] | maintaining mitochondrial membrane potential Δψm [5] | calculated octanol-water partition coefficient [6]
Cc1cc(N(C)C)nc(CCCCCCCCCCO)c1O [Compound B, 2-N,N-dimethylamino-5-hydroxy-4-methyl-6-(10-hydroxydecyl)-pyridine] | about as effective as C | less effective at this concentration | significantly more effective in blocking diethylmaleate-induced ROS production compared to idebenone or its reduced form (Idebenol); also recorded: protected the cells | more effective than idebenone at all tested concentrations; also recorded: more effective than idebenone in suppressing ROS in a dose-dependent fashion | 300 ± 22 | quite effective in maintaining cell viability following DEM treatment; also recorded: superior to idebenone in maintaining the viability of DEM-treated cells | clearly reduce cytochrome c | clearly more effective in maintaining mitochondrial membrane potential; also recorded: very favorable properties | –
COC1=C(OC)C(=O)C(C/C=C(\C)CC/C=C(\C)CC/C=C(\C)CC/C=C(\C)CC/C=C(\C)CC/C=C(\C)CC/C=C(\C)CC/C=C(\C)CC/C=C(\C)CCC=C(C)C)=C(C)C1=O [coenzyme Q10] | – | – | – | – | – | – | – | – | > 10^20
